Results as given in patent US20200348288A1, “A method and a system for analysis of cardiomyocyte function” (IMEC VZW, priority 2017, published 2020).

Tested on: cardiomyocytes
Test: analysis of cardiomyocyte function (microelectrode array recording with simultaneous reflective lensfree imaging) before and after administering of a drug
Type: cell-based
Details: after vs before administering of drug, FIG. 5
Text: During or in-between measurements, a drug may be administered 210 to the cardiomyocytes in order to allow predicting of adverse effects on electrical and/or contractile function of the cardiomyocytes.
After drug treatment, analysis 212 on the cardiomyocytes is again performed. The electrical and/or contractile representations before and after drug treatment may be compared in order to predict adverse effects.
The method further comprises recording 304 electrical signals from the cardiomyocytes. The electrical signals may be acquired by the microelectrode array 112, which may be arranged in contact with the cardiomyocytes on the substrate 110. The electrical signals may further be transferred to readout circuitry 120 recording electrical signals received from the microelectrode array 112.
The method further comprises simultaneously with the recording 304, acquiring 306 a sequence of images. Each image may be acquired by detecting light wavefront information in reflective lensfree imaging and reconstructing the image of the cardiomyocytes based on the detected light wavefront information.
The method further comprises determining 308 an electrical representation relating to an intracellular and/or extracellular action potential, and/or an impedimetric electrical image of a cardiomyocyte based on the recorded electrical signals. […]

- electrical function of the cardiomyocytes (electrical representation): not affected
SMILES: Cc1ccc2c(c1)C(=O)C1(O)CCN(c3ccccc3)C1=N2 (centres unmarked) [blebbistatin]
- contractile function of the cardiomyocytes (contractile representation): severe adverse effects
